Entries after “also recorded” stand apart in the source; their conditions may differ. No end group written: not given here. Cy5Q = quencher
What was measured:
[1] = system: NIH 3T3; test: Selective permeabilisation with digitonin (cytosolic vs organelle fraction fluorescence); type: cell-based, Mouse; settings: 60 min incubation, 20 μM digitonin 3 min, FIG. 8
Experimental: Mouse fibroblasts (NIH 3T3) were cultured at 1×10^6 cells/ml in DMEM (see above) on 24-well tissue culture plates (Costar Inc.). Cells were incubated with Cy3- labelled carrier peptides (H2N-Ala-Pro-Thr-Arg-Val-Pro-Leu-Pro-Leu-Pro-Val-Gly-Gly-Lys-OH (SEQ ID No.4); H2N-Ala-Pro-Thr-Arg-Ala-Val-Leu-Pro-Leu-Ala-Val-Gly-Gly-Lys-OH (SEQ ID No.5); H2N-Ala-Pro-Thr-Arg-Val-Leu-Pro-Pro-Leu-Val-Ala-Gly-Gly-Lys-OH (SEQ ID No.6); H2N-Ala-Pro-Thr-Arg-Val-Leu-Leu-Pro-Leu-Leu-Val-Gly-Gly-Lys-OH (SEQ ID No.7) for 60 minutes (5% CO2, 37° C., 95% humidity). Cells were washed (×4) with PBS, before addition of 20 μM digitonin for 3 minutes. Cells were rapidly centrifuged (10,000×g, for 5 minutes) to separate into supernatant (cytosolic) and pellet (organelle) fractions. The fluorescence activity was then measured using a CytoFluor multi-well plate reader (activating at 530 nm, emission 590 nm). Unlabelled cells (cells without dye), unlabelled Cy3 (unlinked dye) (Amersham Pharmacia Biotech), and, untreated cells (unpermeabilised cells without digitonin), were used as controls. […] Cytosolic preparations were confirmed using an assay for cytoplasmic lactic dehydrogenase (LDH) in the presence of PNADH (Wroblewski & LaDue, Proc. Soc. Exp. Biol. Med. 1955, (90), 210-213.

[2] = system: NIH 3T3 cells; test: Cellular uptake of Cy3 linked to carrier peptide (plate reader, fluorescence and confocal microscopy); type: cell-based, Mouse
Experimental: Mouse fibroblasts (NIH 3T3) or human ovary adenocarcinoma (SK-OV) cells were cultured in Dulbecco's modified Eagle's medium (DMEM) supplemented with 10% (v/v) foetal calf serum (FCS), 4 mM L-glutamine, 100 U/ml penicillin and 100 μg/ml streptomycin. NIH 3T3 cells were grown on 96-well tissue culture plates (Costar Inc.) or WillCo-dishes (glass-bottomed dishes, with 0.17 mm cover glass for inverted microscopes) (WillCo), before treatment with carrier peptide. Cells were incubated (60 min, 5% CO2, 37° C., 95% humidity) with Cy3 linked to carrier peptide (H2N-Ala-Pro-Thr-Arg-Val-Leu-Pro-Pro-Leu-Val-Ala-Gly-Gly-Lys-OH) (SEQ ID No.6)) (range 1-100 μM). After incubation, the culture supernatant was decanted and the cells were washed. Cy3 (unlinked dye) (Amersham Pharmacia Biotech) was used as a control. Cellular fluorescence was detected using a CytoFluor multi-well plate reader (Applied Biosystems, Foster City, Calif., USA), (activating at 530 nm, emission 590 nm) (FIG. 1); a Nikon-Diaphot 300 fluorescence microscope, (activating at 490 nm, emission at 520 nm); and a Zeiss Microsystems confocal laser scanning microscope (LSM4) (activating at 515 nm, emission at 565 nm) (FIGS. 2 (a) and (b)). Cells were further studied for intracellular dye localization by a twenty-step Z-position sectional scanning of the cell (0.5 μm/section) using a 40× oil immersion lens (FIG. 3). […]

[3] = system: NIH 3T3 cells; test: Flow cytometry of cells incubated with Cy3 linked to carrier peptide; type: cell-based, Mouse; settings: 1 μM, 60 min
Experimental: Mouse fibroblasts (NIH 3T3 cells) were cultured in DMEM (see above) on 24-well tissue culture plates (Costar Inc.). Cells were incubated (60 min, 5% CO2, 37° C., 95% humidity) with Cy3 (1 μM) linked to carrier peptide (H2N-Ala-Pro-Thr-Arg-Val-Leu-Pro-Pro-Leu-Val-Ala-Gly-Gly-Lys-OH (SEQ ID No.6)). After incubation, the culture supernatant was decanted and the cells washed. Cells were trypsinised (0.25% w/v, 5 min) and re-suspended in PBS, before analysis by flow cytometry (see below). Untreated cells and Cy3 only (unlinked dye) (Amersham Pharmacia Biotech) were used as controls.
All samples were analyzed on a FACSCalibur Flow Cytometry System (Becton Dickinson, San Jose, Calif., USA) with CellQuest software. The instrument is equipped with a 488 nm argon-ion laser and 5 detection parameters. There are 2 scatter detectors, known as forward scatter (FSC) and side scatter (SSC) which provide information about cellular size and internal complexity, respectively. In addition, there are three relative fluorescence intensity detectors. Cy3 labelling was monitored with the second fluorescence detector (FL2) fitted with a 585/42 nm filter. […]
Histogram markers were set so that only 2-3% of the recorded events were past the FL2 channel marker 30 for the dye only control.

[4] = system: NIH 3T3 cells; test: Cellular delivery of nuclear localization sequence (confocal microscopy); type: cell-based, Mouse; settings: overnight incubation, FIG. 10
Experimental: NIH 3T3 cells were cultured (see above) on WillCo-dishes (glass-bottomed dishes, with 0.17 mm cover glass for inverted microscopes) (WillCo), before treatment with carrier peptide linked to the nuclear localization sequence. Confluent NIH 3T3 cells were incubated (overnight, 5% CO2, 37° C., 95% humidity) in the presence of Cy3-[…]amide, before washing (×3) with PBS, and visualization using a Zeiss Microsystems confocal laser scanning microscope (LSM4) (activating at 515 nm, emission at 565 nm). Controls included Cy3 linked to carrier peptide (Cy3-Ala-Pro-Thr-Arg-Val-Leu-Pro-Pro-Leu-Val-Ala-Gly-Gly-Lys-OH), and unlabelled Cy3 (unlinked dye) (Amersham Pharmacia Biotech).

[5] = system: SK-OV-NTR cells (SK-OV-3 stably transfected with bacterial NTR genes); test: Nitroreductase assay, delivery of nitroreductase reporter, transfected cells; type: cell-based, Human; settings: 10 μM, 5 hour incubation
From the text: (§1) As disclosed in PCT/GB99/01746, the fluorescence properties of cyanine dyes may be modified by substitution of the dye with nitro, and/or dinitrobenzyl groups, which have the effect of reducing or abolishing the fluorescence from the molecule. An example of such a quenching or “dark” dye is Cy5Q (Amersham Pharmacia Biotech). In the presence of the enzyme, nitroreductase (NTR), a nitro-group substituent of Cy5Q may be converted to an amino-group, with the result that there is an increase in the fluorescence intensity of the dye. This may be used as the basis for an assay for the measurement of intracellular nitroreductase. In this example, Cy5Q is conjugated to a carrier peptide and is used as an indicator of nitroreductase (NTR) in whole, living cells.
(§2) The assay may be carried out using cells transfected with DNA encoding the gene for bacterial NTR, such that when the Cy5Q conjugate is introduced into such a transfected cell line, an increase in fluorescence is measured. […]
(§3) Cy5Q chemically linked to the carrier peptide Ac-Ala-Pro-Thr-Arg-Val-Leu-Pro-Pro-Leu-Val-Ala-Gly-Gly-Lys-amide was incubated with cells (30,000 cells/well) (1-5 hours, 5% CO2, 37° C., 95% humidity), cells washed (×3) with PBS and fluorescence measured from below, using a CytoFluor multi-well plate reader (Applied Biosystems), (activating at 610 nm, emission 670 nm). […]

[6] = system: parental SK-OV cells; test: Nitroreductase assay, delivery of nitroreductase reporter, non-transfected cells; type: cell-based, Human; settings: 10 μM, parental cell lines, FIG. 9
From the text: as §1, §2, §3

Cy3 linked to carrier peptide (SEQ ID No.7): Cy3 dye linked through NHS ester to carrier peptide H2N-Ala-Pro-Thr-Arg-Val-Leu-Leu-Pro-Leu-Leu-Val-Gly-Gly-Lys-OH (APTRVLLPLLVGGK-OH; also: Cy3 dye linked through NHS ester, site not given here)
delivered dye in the cytosol (supernatant fraction after digitonin) [1]: significant amount of delivered agent in the cytosol; also recorded: significant amount of delivered dye into the cytosol

Cy3-Ala-Pro-Thr-Arg-Val-Leu-Pro-Pro-Leu-Val-Ala-Gly-Gly-Lys-OH (Cy3-APTRVLPPLVAGGK-OH)
intracellular dye localization by twenty-step Z-position sectional scanning ([2]; confocal, 0.5 μm/section, FIG. 3): dye staining in the central portion of the cell, and little staining on the periphery or cell membrane | uptake of Cy3 into NIH 3T3 cells (cellular fluorescence) ([2]; range 1-100 μM, 60 min, CytoFluor plate reader, FIG. 1): dose-dependent uptake | delivered dye in the cytosol (supernatant fraction after digitonin) [1]: significant amount of delivered agent in the cytosol; also recorded: significant amount of delivered dye into the cytosol | uptake of Cy3 across the cell population (dot plots) ([3]; FIG. 5): homogeneous uptake | increase in fluorescence geometric mean between dye control and test cells ([3]; FL2 histogram, FIG. 6): approximately 5 fold

Cy3-Ser-Ser-Asp-Asp-Glu-Ala-Thr-Ala-Ser-Asp-Gln-His-Ser-Thr-Pro-Pro-Lys-Lys-Lys-Arg-Lys-Val-Glu-Asp-Pro-Lys-Ala-Pro-Thr-Arg-Val-Leu-Pro-Pro-Leu-Val-Ala-Gly-Gly-Lys-amide
nuclear staining compared with the controls [4]: more pronounced nuclear staining

Cy3 linked to carrier peptide (SEQ ID No.4): Cy3 dye linked through NHS ester to carrier peptide H2N-Ala-Pro-Thr-Arg-Val-Pro-Leu-Pro-Leu-Pro-Val-Gly-Gly-Lys-OH (APTRVPLPLPVGGK-OH; also: Cy3 dye linked through NHS ester, site not given here)
delivered dye in the cytosol (supernatant fraction after digitonin) [1]: significant amount of delivered agent in the cytosol; also recorded: significant amount of delivered dye into the cytosol

Cy3 linked to carrier peptide (SEQ ID No.5): Cy3 dye linked through NHS ester to carrier peptide H2N-Ala-Pro-Thr-Arg-Ala-Val-Leu-Pro-Leu-Ala-Val-Gly-Gly-Lys-OH (APTRAVLPLAVGGK-OH; also: Cy3 dye linked through NHS ester, site not given here)
delivered dye in the cytosol (supernatant fraction after digitonin) [1]: significant amount of delivered agent in the cytosol; also recorded: significant amount of delivered dye into the cytosol

Ac-Ala-Pro-Thr-Arg-Val-Leu-Pro-Pro-Leu-Val-Ala-Gly-Gly-Lys(Cy5Q)-amide (Ac-APTRVLPPLVAGGK(Cy5Q)-NH2) [carrier peptide linked to Cy5Q]
cellular uptake and substrate conversion (Cy5Q fluorescence) ([5]; FIG. 9): significant cellular internalization and substrate conversion | cellular uptake and substrate conversion (Cy5Q fluorescence) ([5]; FIG. 9, listed as delivery peptide linked to Cy5Q): significant cellular uptake and substrate conversion | substrate conversion (Cy5Q fluorescence) [6]: Little conversion
